From patent US9604933B2, “Pyrazolochalcones as potential anticancer agents” (COUNCIL OF SCIENTIFIC AND INDUSTRIAL RESEARCH, priority 2013, dated 2017)

What was measured:
[1] = tested on: HCT-116; experiment: NCI SRB cytotoxicity, colon HCT-116; format: cell-based; settings: Homo sapiens, 48 h exposure
Protocol: (§1) The pyrazolochalcones (7e, 8e, 10e, 11e, 12e, 13e and 8f) have been tested against fifty nine human tumor cell lines derived from nine cancer types (leukemia, non-small cell lung cancer, colon cancer, CNS cancer, melanoma, ovarian cancer, renal cancer, prostate cancer and breast cancer) as per the NCI protocol. For each compound, dose response curves for individual cell lines have been measured at a minimum of five concentrations at 10 fold dilutions. A protocol of 48 h continuous drug exposure has been used, and a sulforhodamine B (SRB) protein assay has been used to estimate cell viability or growth. The concentration for 50% cell growth inhibition (GI50), 50% cell death (LC50, 50% growth) and total cell growth inhibition (TGI, 0% growth) values were tabulated (Table-1). DMSO was used as control to calculate the values of GI50, LC50 and TGI. The compounds 7e, 8e, 10e, 11e, 12e, 13e and 8f has been evaluated for their in vitro cytotoxicity in […] cell lines from nine human cancer types of leukemia (K-562, SR), non-small cell lung (Hop-62, NCI-H226, NCI-H522), colon (HCT-116, HCT-15, HCC-2998), CNS (SF-539), melanoma (SK-MEL-5, UACC-62, M14), ovarian (IGROV1), renal (A498), prostate (PC3) and breast (BT-549, MDA-MB-435, HS578T) origin. The results are expressed as percent of cell growth determined relative to that of untreated control cells (Table 2).

[2] = tested on: SK-MEL-2; experiment: NCI SRB cytotoxicity, melanoma SK-MEL-2; format: cell-based; settings: Homo sapiens, 48 h exposure
Protocol: as §1

[3] = tested on: SN12C; experiment: NCI SRB cytotoxicity, renal SN12C; format: cell-based; settings: Homo sapiens, 48 h exposure
Protocol: as §1

[4] = tested on: Colon; experiment: NCI SRB cytotoxicity, colon panel average; format: cell-based, human; settings: average of cell lines; for GI50 / LC50: Homo sapiens; for GI50: read-out: Log10 GI50 (concentration in mol/L causing 50% growth inhibition) (converted); for LC50: read-out: Log10 LC50 (concentration in mol/L causing 50% cell death) (converted)
Protocol: as §1
(§2) Each cancer type represents the average of six to eight different cancer cell lines.

[5] = tested on: MOLT-4; experiment: NCI SRB cytotoxicity, leukemia MOLT-4; format: cell-based; settings: Homo sapiens, 48 h exposure
Protocol: as §1

[6] = tested on: Renal; experiment: NCI SRB cytotoxicity, renal panel average; format: cell-based, human; settings: average of cell lines; for GI50 / CC50: Homo sapiens; for GI50: read-out: Log10 GI50 (concentration in mol/L causing 50% growth inhibition) (converted); for CC50: read-out: Log10 LC50 (concentration in mol/L causing 50% cell death) (converted)
Protocol: as §1, §2

[7] = tested on: UACC-62; experiment: NCI SRB cytotoxicity, melanoma UACC-62; format: cell-based; settings: Homo sapiens, 48 h exposure
Protocol: as §1

[8] = tested on: Prostate; experiment: NCI SRB cytotoxicity, prostate panel average; format: cell-based, human; settings: average of cell lines; for GI50 / CC50: Homo sapiens; for GI50: read-out: Log10 GI50 (concentration in mol/L causing 50% growth inhibition) (converted); for CC50: read-out: Log10 LC50 (concentration in mol/L causing 50% cell death) (converted)
Protocol: as §1, §2

[9] = tested on: CCRF-CEM; experiment: NCI SRB cytotoxicity, leukemia CCRF-CEM; format: cell-based; settings: Homo sapiens, 48 h exposure
Protocol: as §1

[10] = tested on: HOP92; experiment: NCI SRB cytotoxicity, non-small cell lung HOP92; format: cell-based; settings: Homo sapiens, HOP-92, 48 h exposure
Protocol: as §1

[11] = tested on: Ovarian; experiment: NCI SRB cytotoxicity, ovarian panel average; format: cell-based, human; settings: average of cell lines; for GI50 / CC50: Homo sapiens; for GI50: read-out: Log10 GI50 (concentration in mol/L causing 50% growth inhibition) (converted); for CC50: read-out: Log10 LC50 (concentration in mol/L causing 50% cell death) (converted)
Protocol: as §1, §2

[12] = tested on: RXF 393; experiment: NCI SRB cytotoxicity, renal RXF 393; format: cell-based; settings: Homo sapiens, 48 h exposure
Protocol: as §1

[13] = tested on: Leukemia; experiment: NCI SRB cytotoxicity, leukemia panel average; format: cell-based, human; settings: average of cell lines; for GI50 / CC50: Homo sapiens; for GI50: read-out: Log10 GI50 (concentration in mol/L causing 50% growth inhibition) (converted); for CC50: read-out: Log10 LC50 (concentration in mol/L causing 50% cell death) (converted)
Protocol: as §1, §2

[14] = tested on: MDA-MB-231/ATCC; experiment: NCI SRB cytotoxicity, breast MDA-MB-231/ATCC; format: cell-based; settings: Homo sapiens, 48 h exposure
Protocol: as §1

[15] = tested on: HS 578T; experiment: NCI SRB cytotoxicity, breast HS 578T; format: cell-based; settings: Homo sapiens, 48 h exposure
Protocol: as §1

[16] = tested on: OVCAR-3; experiment: NCI SRB cytotoxicity, ovarian OVCAR-3; format: cell-based; settings: Homo sapiens, 48 h exposure
Protocol: as §1

[17] = tested on: K-562; experiment: NCI SRB cytotoxicity, leukemia K-562; format: cell-based; settings: Homo sapiens, K562, 48 h exposure
Protocol: as §1

[18] = tested on: UO-31; experiment: NCI SRB cytotoxicity, renal UO-31; format: cell-based; settings: Homo sapiens, 48 h exposure
Protocol: as §1

[19] = tested on: Non-small cell lung; experiment: NCI SRB cytotoxicity, non-small cell lung panel average; format: cell-based, human; settings: average of cell lines; for GI50 / LC50: Homo sapiens; for GI50: read-out: Log10 GI50 (concentration in mol/L causing 50% growth inhibition) (converted); for LC50: read-out: Log10 LC50 (concentration in mol/L causing 50% cell death) (converted)
Protocol: as §1, §2

[20] = tested on: Melanoma; experiment: NCI SRB cytotoxicity, melanoma panel average; format: cell-based, human; settings: average of cell lines; for GI50 / LC50: Homo sapiens; for GI50: read-out: Log10 GI50 (concentration in mol/L causing 50% growth inhibition) (converted); for LC50: read-out: Log10 LC50 (concentration in mol/L causing 50% cell death) (converted)
Protocol: as §1, §2

[21] = tested on: UACC-257; experiment: NCI SRB cytotoxicity, melanoma UACC-257; format: cell-based; settings: Homo sapiens, 48 h exposure
Protocol: as §1

[22] = tested on: NCI-H23; experiment: NCI SRB cytotoxicity, non-small cell lung NCI-H23; format: cell-based; settings: Homo sapiens, 48 h exposure
Protocol: as §1

[23] = tested on: PC-3; experiment: NCI SRB cytotoxicity, prostate PC-3; format: cell-based; settings: Homo sapiens, 48 h exposure
Protocol: as §1

[24] = tested on: SF-539; experiment: NCI SRB cytotoxicity, CNS SF-539; format: cell-based; settings: Homo sapiens, 48 h exposure
Protocol: as §1

[25] = tested on: NCI/ADR-RES; experiment: NCI SRB cytotoxicity, ovarian NCI/ADR-RES; format: cell-based; settings: Homo sapiens, 48 h exposure
Protocol: as §1

[26] = tested on: TK-10; experiment: NCI SRB cytotoxicity, renal TK-10; format: cell-based; settings: Homo sapiens, 48 h exposure
Protocol: as §1

[27] = tested on: SNB-75; experiment: NCI SRB cytotoxicity, CNS SNB-75; format: cell-based; settings: Homo sapiens, 48 h exposure
Protocol: as §1

[28] = tested on: A549/ATCC; experiment: NCI SRB cytotoxicity, non-small cell lung A549/ATCC; format: cell-based; settings: Homo sapiens, 48 h exposure
Protocol: as §1

[29] = tested on: HL-60(TB); experiment: NCI SRB cytotoxicity, leukemia HL-60(TB); format: cell-based; settings: Homo sapiens, 48 h exposure
Protocol: as §1

[30] = tested on: MCF7; experiment: NCI SRB cytotoxicity, breast MCF7; format: cell-based; settings: Homo sapiens, 48 h exposure
Protocol: as §1

[31] = tested on: NCI-H460; experiment: NCI SRB cytotoxicity, non-small cell lung NCI-H460; format: cell-based; settings: Homo sapiens, 48 h exposure
Protocol: as §1

With COc1cc(-c2cc(/C=C/C(=O)c3ccc(Cl)c(Cl)c3)[nH]n2)cc(OC)c1OC [12e, (E)-1-(3,4-dichlorophenyl)-3-(3-(3,4,5-trimethoxyphenyl)-1H-pyrazol-5-yl)prop-2-en-1-one] the GI50 [1] was 2.95 µM, the GI50 [2] was 13.9 µM and the GI50 [3] was 13.7 µM. For the same molecule, the GI50 [4] was 4.79 µM, the LC50 [4] was 100 µM and the “Log10 TGI (concentration in mol/L causing total growth inhibition)” value [4] was −4.34 mol/L. The GI50 [5] was 4.38 µM, the GI50 [6] was 8.91 µM and the CC50 [6] was 93.3 µM. The “Log10 TGI (concentration in mol/L causing total growth inhibition (0% growth))” value [6] was −4.22 mol/L, the GI50 [7] was 18.8 µM and the GI50 [8] was 5.89 µM. The CC50 [8] was 100 µM, the “Log10 TGI (concentration in mol/L causing total growth inhibition (0% growth))” value [8] was −4.00 mol/L and the GI50 [9] was 2.15 µM. For the same molecule, the GI50 [10] was 2.53 µM, the GI50 [11] was 10 µM and the CC50 [11] was 95.5 µM. The “Log10 TGI (concentration in mol/L causing total growth inhibition (0% growth))” value [11] was −4.27 mol/L, the GI50 [12] was 2.7 µM and the GI50 [13] was 2.09 µM. For the same molecule, the CC50 [13] was 0.0001 mol/L, the “Log10 TGI (concentration in mol/L causing total growth inhibition (0% growth))” value [13] was −4.61 mol/L and the GI50 [14] was 8.65 µM. The GI50 [15] was 16.6 µM, the GI50 [16] was 6.99 µM and the GI50 [17] was 4.96 µM. The GI50 [18] was 5.73 µM, the GI50 [19] was 6.61 µM and the LC50 [19] was 200 µM. The “Log10 TGI (concentration in mol/L causing total growth inhibition (0% growth))” value [19] was −4.52 mol/L, the GI50 [20] was 13.2 µM and the LC50 [20] was 95.5 µM. The “Log10 TGI (concentration in mol/L causing total growth inhibition)” value [20] was −4.21 mol/L, the GI50 [21] was 16.3 µM and the GI50 [22] was 23.4 µM. The GI50 [23] was 5.95 µM, the GI50 [24] was 4.31 µM and the GI50 [25] was 10.6 µM. The GI50 [26] was 8.34 µM, the GI50 [27] was 8.7 µM and the GI50 [28] was 18.7 µM. The GI50 [29] was 7.18 µM, the GI50 [30] was 1.8 µM and the GI50 [31] was 4.9 µM.

Molecule COc1cc(C(=O)/C=C/c2cc(-c3cc(OC)c(OC)c(OC)c3)n[nH]2)cc(OC)c1OC [10e, (E)-1-(3,4,5-trimethoxyphenyl)-3-(3-(3,4,5-trimethoxyphenyl)-1H-pyrazol-5-yl)prop-2-en-1-one] has a GI50 [1] of 1.31 µM, a GI50 [2] of 1.96 µM and a GI50 [3] of 1.47 µM. For the same molecule, the GI50 [4] was 1.62 µM, the LC50 [4] was 6.03 µM and the “Log10 TGI (concentration in mol/L causing total growth inhibition)” value [4] was −5.50 mol/L. The GI50 [5] was 2.32 µM, the GI50 [6] was 1.58 µM and the CC50 [6] was 7.59 µM. The “Log10 TGI (concentration in mol/L causing total growth inhibition (0% growth))” value [6] was −5.45 mol/L, the GI50 [7] was 1.78 µM and the GI50 [8] was 1.48 µM. The CC50 [8] was 7.41 µM, the “Log10 TGI (concentration in mol/L causing total growth inhibition (0% growth))” value [8] was −5.48 mol/L and the GI50 [9] was 1.68 µM. The GI50 [10] was 0.86 µM, the GI50 [11] was 2.19 µM and the CC50 [11] was 14.5 µM. The “Log10 TGI (concentration in mol/L causing total growth inhibition (0% growth))” value [11] was −5.23 mol/L, the GI50 [12] was 1.26 µM and the GI50 [13] was 1.2 µM. The CC50 [13] was 0.0001 mol/L, the “Log10 TGI (concentration in mol/L causing total growth inhibition (0% growth))” value [13] was −4.80 mol/L and the GI50 [14] was 1.52 µM. For the same molecule, the GI50 [15] was 2.68 µM, the GI50 [16] was 1.75 µM and the GI50 [17] was 2.96 µM. The GI50 [18] was 1.19 µM, the GI50 [19] was 1.29 µM and the LC50 [19] was 13.5 µM. The “Log10 TGI (concentration in mol/L causing total growth inhibition (0% growth))” value [19] was −5.42 mol/L, the GI50 [20] was 1.7 µM and the LC50 [20] was 6.46 µM. The “Log10 TGI (concentration in mol/L causing total growth inhibition)” value [20] was −5.47 mol/L, the GI50 [21] was 1.57 µM and the GI50 [22] was 3.04 µM. For the same molecule, the GI50 [23] was 1.47 µM, the GI50 [24] was 1.29 µM and the GI50 [25] was 3.47 µM. It also gave a GI50 [26] of 1.46 µM, a GI50 [27] of 1.54 µM and a GI50 [28] of 2.72 µM. For the same molecule, the GI50 [29] was 1.93 µM, the GI50 [30] was 0.64 µM and the GI50 [31] was 1.89 µM.
